Experimental data reported in patent US20110092510A1, “DPP-IV INHIBITORS FOR USE IN THE TREATMENT OF NAFLD” (BOEHRINGER INGELHEIM INTERNATIONAL GMBH, priority 2008, published 2011).
Entries after “also recorded” stand apart in the source; their conditions may differ.

How the values were obtained:
[1] = Excretion/elimination of BI 1356 at therapeutic oral dose levels; assay type: in vivo
[2] = Safety and tolerability in people with type 2 diabetes; assay type: in vivo

CC#CCn1c(N2CCC[C@@H](N)C2)nc2c1c(=O)n(Cc1nc(C)c3ccccc3n1)c(=O)n2C [BI 1356, 1-[(4-methyl-quinazolin-2-yl)methyl]-3-methyl-7-(2-butyn-1-yl)-8-(3-(R)-amino-piperidin-1-yl)-xanthine]
fraction excreted via the kidney [1]: < 7 % of the administered oral dose
main route of excretion [1]: mainly excreted via the liver; also recorded: primarily excreted unchanged via the bile
safety and tolerability [2]: placebo-like safety and tolerability
